From patent US20210198256A1, “COMPOUNDS FOR THE DEGRADATION OF BRD9 OR MTH1” (C4 Therapeutics, Inc., priority 2018, published 2021)

Test system: SMARTCAR-MTH1-wt-HiBiT (Jurkat.7 cells)
Test: HiBit Lytic Assay (HiBit DC50, MTH1 degraders of Table 2)
Type: cell-based, human
Details: Jurkat.7 SMARTCAR-MTH1-wt-HiBiT cells, compound treatment time 4 hr, 11-point half log dose response
Method: Example 3. HiBit Lytic Assay
• Compound is made at 10 mM, half log dilution, 11 points. • MDR plates can also be ordered from Frontier with same format. • 1. Barcode a 384LDV plate (384-well Low Dead Volume Microplate, Labcyte LP-0200) (Echo compatible) on the left side. • 2. Transfer 13.6 μL of 10 mM compound into column 1 of LDV plate (Labcyte). • 3. Fill column 2-11 and column 23 of MDR plate with 9.30 μL of DMSO. • 4. Serial dilute 3.16 fold from column 1 to 2 by transferring 4.30 μL from column 1 to column 2, and so on to column 11. *Change tip in every dilution to prevent compound carryover effect! • 5. Seal the plate with Plate Sealer, then store the MDR plate at room temperature for short term storage and in −20° C. for long term storage.
• Cells are treated with 30 nL of each compound at 10 mM, half log dilution, 11 points with final concentration of 1000 nM or 833 nM, half log dilution, 11 points, in duplicates. Final DMSO concentration is 0.1%. • 1. Barcode the plates made on the left side and label the plates with silver marker. • 2. Dispense with the following scheme: • a. 30 nL of compound into corresponding wells in cell plates via Echo550 with “MDR32_HiBiT16_30 nL”. Top concentration will be 1000 nM. • 3. Seal the plate with Plate Sealer.
• Cells are dispensed at density specified in Cell Line Table in 384-well microplate. • 1. Culture cells to between 50-80% of confluence in sterile culture flasks of appropriate size. • 2. For Adherent Cell Lines: • a. Aspirate off growth media in culture flask, and wash off the Phenol Red media with 5 mL of 1×PBS. • b. Add 5 mL of Trypsin to the cells, incubate at 37° C. for 5 minutes. • c. Add 5 mL of growth media to the trypsinzed cells, and resuspend. • 3. Remove 10 μL of cells, and resuspend the cells with 10 μL of Trypan Blue. Insert the solution to counting chamber slide, and count the cells via cell counter. • 4. Adjust the cell concentration to specified plating density, and strain the cells with cell strainer. • 5. Dispense the cells via E1-ClipTip™ Electronic Multichannel Pipettes or Multidrop™ Combi Reagent Dispenser with Standard tube dispensing cassette: • a. Prime the cassette with 10-20 mL of ddH2O. • b. Prime the cassette with 10-20 mL of cells. • c. Dispense the cells at low speed for 30 μL/well in Corning® 384 Well Low Flange Black Flat Bottom Polystyrene TC-Treated Microplate. • d. Wash the cassette with 10-20 mL of ddH2O, follow by 10-20 mL of 70% EtOH, then again with 10-20 mL of ddH2O. • 6. Incubate the plates at 37° C.×compound treatment time.
• 1. If not already, bring Nano-Glo® HiBiT Lytic Buffer to room temperature. • 2. Determine the amount of reagent needed. A volume of reagent equal to the volume of media in the well should be added (i.e. 30 μL of cells will need 30 μL of HiBiT Lytic reagent). • 3. Into a given volume of buffer, dilute the substrate 50-fold and the LgBiT protein 100-fold. For example, to make 10 ml of reagent, add the following: • 10 ml Nano-Glo® HiBiT Lytic Buffer • 200 μl Nano-Glo® HiBiT Lytic Substrate • 100 μl LgBiT Protein • The reagent should be reconstituted immediately before use. However, once reconstituted, it should take about 4 hours for the activity to decrease 10%. • 4. Cool down the cell plate to room temperature for 10-15 minutes without lid. • 5. Dispense the HiBiT Lytic Reagent via E1-ClipTip™ Electronic Multichannel Pipettes or Multidrop™ Combi Reagent Dispenser with Standard tube dispensing cassette: • a. Prime the cassette with 10-20 mL of ddH2O. • b. Prime the cassette with 10-20 mL of CTG 2.0. • c. Dispense the HiBiT Lytic Reagent at medium speed for 30 μL/well in cell plate to column 1-23 (column 24 will be used as plate background). • d. Wash the cassette with 10-20 mL of ddH2O, follow by 10-20 mL of 70% EtOH, then again with 10-20 mL of ddH2O. • 6. Incubate the cell plate at room temperature for 10 minutes without lid. • 7. […]

| SMILES | DC50 |
| --- | --- |
| CNC(=O)c1cnc2ccc(N3CCC(C(=O)NCCCCNC(=O)COc4cccc5c4C(=O)N(C4CCC(=O)NC4=O)C5=O)CC3)cc2c1Nc1ccccc1 (stereo not shown) [Compound 347, 4-anilino-6-[4-[4-[[2-[2-(2,6-dioxo-3-piperidyl)-1,3-dioxo-isoindolin-4-yl]oxyacetyl]amino]butylcarbamoyl]-1-piperidyl]-N-methyl-quinoline-3-carboxamide] | < 100 nM |
| CNC(=O)c1cnc2ccc(-c3ccc(C(=O)NCCCCNC(=O)COc4cccc5c4C(=O)N(C4CCC(=O)NC4=O)C5=O)c(F)c3)cc2c1Nc1ccccc1 (stereo not shown) [Compound 351, 4-anilino-6-[4-[4-[[2-[2-(2,6-dioxo-3-piperidyl)-1,3-dioxo-isoindolin-4-yl]oxyacetyl]amino]butylcarbamoyl]-3-fluoro-phenyl]-N-methyl-quinoline-3-carboxamide] | < 100 nM |
| CNC(=O)c1cnc2ccc(-c3ccc(C(=O)NCCCCNC(=O)CNc4cccc5c4C(=O)N(C4CCC(=O)NC4=O)C5=O)c(C)c3)cc2c1Nc1ccccc1 (stereo not shown) [Compound 353, 4-anilino-6-[4-[4-[[2-[[2-(2,6-dioxo-3-piperidyl)-1,3-dioxo-isoindolin-4-yl]amino]acetyl]amino]butylcarbamoyl]-3-methyl-phenyl]-N-methyl-quinoline-3-carboxamide] | < 100 nM |
| CNC(=O)c1cnc2ccc(-c3ccc(C(=O)NCCCCNC(=O)COc4cccc5c4C(=O)N(C4CCC(=O)NC4=O)C5=O)c(C)c3)cc2c1Nc1ccccc1 (stereo not shown) [Compound 354, 4-anilino-6-[4-[4-[[2-[2-(2,6-dioxo-3-piperidyl)-1,3-dioxo-isoindolin-4-yl]oxyacetyl]amino]butylcarbamoyl]-3-methyl-phenyl]-N-methyl-quinoline-3-carboxamide] | < 100 nM |
| CNC(=O)c1cnc2ccc(-c3ccc(C(=O)NCCCCn4cc(CNc5cccc6c5C(=O)N(C5CCC(=O)NC5=O)C6=O)nn4)cc3)cc2c1Nc1ccccc1 (stereo not shown) [Compound 356, 4-anilino-6-[4-[4-[4-[[[2-(2,6-dioxo-3-piperidyl)-1,3-dioxo-isoindolin-4-yl]amino]methyl]triazol-1-yl]butylcarbamoyl]phenyl]-N-methyl-quinoline-3-carboxamide] | < 100 nM |
| CNC(=O)c1cnc2ccc(-c3ccc(C(=O)NCCCCNC(=O)COc4cccc5c4C(=O)N(C4CCC(=O)NC4=O)C5=O)nc3)cc2c1Nc1ccccc1 (stereo not shown) [Compound 357, 4-anilino-6-[6-[4-[[2-[2-(2,6-dioxo-3-piperidyl)-1,3-dioxo-isoindolin-4-yl]oxyacetyl]amino]butylcarbamoyl]-3-pyridyl]-N-methyl-quinoline-3-carboxamide] | < 100 nM |
| CNC(=O)c1cnc2ccc(-c3ccc(C(=O)NCCCCNC(=O)CNc4cccc5c4C(=O)N(C4CCC(=O)NC4=O)C5=O)nc3)cc2c1Nc1ccccc1 (stereo not shown) [Compound 358, 4-anilino-6-[6-[4-[[2-[[2-(2,6-dioxo-3-piperidyl)-1,3-dioxo-isoindolin-4-yl]amino]acetyl]amino]butylcarbamoyl]-3-pyridyl]-N-methyl-quinoline-3-carboxamide] | < 100 nM |
| CNC(=O)c1cnc2ccc(-c3ccc(C(=O)NCCCCN4CCN(c5cccc6c5C(=O)N(C5CCC(=O)NC5=O)C6=O)CC4)cc3)cc2c1Nc1ccccc1 (stereo not shown) [Compound 359, 4-anilino-6-[4-[4-[4-[2-(2,6-dioxo-3-piperidyl)-1,3-dioxo-isoindolin-4-yl]piperazin-1-yl]butylcarbamoyl]phenyl]-N-methyl-quinoline-3-carboxamide] | < 100 nM |
| CNC(=O)c1cnc2ccc(-c3cnn(CCCCCCNC(=O)COc4cccc5c4C(=O)N(C4CCC(=O)NC4=O)C5=O)c3)cc2c1Nc1ccccc1 (stereo not shown) [Compound 360, 4-anilino-6-[1-[6-[[2-[2-(2,6-dioxo-3-piperidyl)-1,3-dioxo-isoindolin-4-yl]oxyacetyl]amino]hexyl]pyrazol-4-yl]-N-methyl-quinoline-3-carboxamide] | < 100 nM |
| CNC(=O)c1cnc2ccc(-c3ccc(C(=O)NCCCNC(=O)C(C)Nc4cccc5c4C(=O)N(C4CCC(=O)NC4=O)C5=O)cc3)cc2c1Nc1ccccc1 (stereo not shown) [Compound 363, 4-anilino-6-[4-[3-[2-[[2-(2,6-dioxo-3-piperidyl)-1,3-dioxo-isoindolin-4-yl]amino]propanoylamino]propylcarbamoyl]phenyl]-N-methyl-quinoline-3-carboxamide] | < 100 nM |
| CNC(=O)c1cnc2ccc(-c3ccc(NCCCCNC(=O)CNc4cccc5c4C(=O)N(C4CCC(=O)NC4=O)C5=O)nc3)cc2c1Nc1ccccc1 (stereo not shown) [Compound 365, 4-anilino-6-[6-[4-[[2-[[2-(2,6-dioxo-3-piperidyl)-1,3-dioxo-isoindolin-4-yl]amino]acetyl]amino]butylamino]-3-pyridyl]-N-methyl-quinoline-3-carboxamide] | < 100 nM |
| CNC(=O)c1cnc2ccc(-c3ccc(C(=O)NCCCCNC(=O)C(C)Nc4cccc5c4C(=O)N(C4CCC(=O)NC4=O)C5=O)c(F)c3)cc2c1Nc1ccccc1 (stereo not shown) [Compound 372, 4-anilino-6-[4-[4-[2-[[2-(2,6-dioxo-3-piperidyl)-1,3-dioxo-isoindolin-4-yl]amino]propanoylamino]butylcarbamoyl]-3-fluoro-phenyl]-N-methyl-quinoline-3-carboxamide] | < 100 nM |
| CNC(=O)c1cnc2ccc(-c3ccc(C(=O)NCCCCNC(=O)CCc4cccc5c4CN(C4CCC(=O)NC4=O)C5=O)cc3)cc2c1Nc1ccccc1 (stereo not shown) [Compound 374, 4-anilino-6-[4-[4-[3-[2-(2,6-dioxo-3-piperidyl)-1-oxo-isoindolin-4-yl]propanoylamino]butylcarbamoyl]phenyl]-N-methyl-quinoline-3-carboxamide] | < 100 nM |
| CNC(=O)c1cnc2cc(C(F)(F)F)c(-c3ccc(C(=O)NCCCCNC(=O)CNc4cccc5c4C(=O)N(C4CCC(=O)NC4=O)C5=O)c(F)c3)cc2c1Nc1ccccc1 (stereo not shown) [Compound 375, 6-(4-((4-(2-((2-(2,6-dioxopiperidin-3-yl)-1,3-dioxoisoindolin-4-yl)amino)acetamido)butyl)carbamoyl)-3-fluorophenyl)-N-methyl-4-(phenylamino)-7-(trifluoromethyl)quinoline-3-carboxamide] | < 100 nM |
| CNC(=O)c1cnc2cc(OC)c(-c3ccc(C(=O)NCCCCn4cc(CNc5cccc6c5C(=O)N(C5CCC(=O)NC5=O)C6=O)nn4)cn3)cc2c1Nc1ccccc1 (stereo not shown) [Compound 376, 6-(5-((4-(4-(((2-(2,6-dioxopiperidin-3-yl)-1,3-dioxoisoindolin-4-yl)amino)methyl)-1H-1,2,3-triazol-1-yl)butyl)carbamoyl)pyridin-2-yl)-7-methoxy-N-methyl-4-(phenylamino)quinoline-3-carboxamide] | < 100 nM |
| CNC(=O)c1cnc2ccc(-c3ccc(C(=O)NCCCCCCCCc4cccc5c4CN(C4CCC(=O)NC4=O)C5=O)cc3)cc2c1Nc1ccccc1 (stereo not shown) [Compound 378, 4-anilino-6-[4-[8-[2-(2,6-dioxo-3-piperidyl)-1-oxo-isoindolin-4-yl]octylcarbamoyl]phenyl]-N-methyl-quinoline-3-carboxamide] | < 100 nM |
